Experimental data published in the supplement of paper PMC11451515.

Tested on: SEM cells
Experiment: cell viability relative to DMSO control; higher = less cytotoxic
Details: 48 h
Summary of the method: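 Viability, reported as a per-plate percentage of DMSO wells with cell-free wells as background, came from CellTiter-Glo One luminescence. Reading took place after 48 h at 37°C. Before that, NOMO1 or SEM (500 cells/well) or P12-Ichikawa (1000 cells/well) leukemia cells, adapted for at least four passages in each medium, were seeded in 1536-well plates (5 μl) and pin-dosed with library compounds in DMSO, 47 μM to 0.79 nM over 11 threefold points.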

[1] = HPLM + 10% dialyzed FBS, 0.000781 µM
[2] = HPLM + 10% dialyzed FBS, 0.00234 µM
[3] = HPLM + 10% dialyzed FBS, 0.00702 µM
[4] = HPLM + 10% dialyzed FBS, 0.0211 µM
[5] = HPLM + 10% dialyzed FBS, 0.0632 µM
[6] = HPLM + 10% dialyzed FBS, 0.19 µM
[7] = HPLM + 10% dialyzed FBS, 0.569 µM
[8] = HPLM + 10% dialyzed FBS, 1.71 µM
[9] = HPLM + 10% dialyzed FBS, 5.12 µM
[10] = HPLM + 10% dialyzed FBS, 15.4 µM
[11] = HPLM + 10% dialyzed FBS, 46.1 µM
[12] = RPMI 5 mM glucose + 10% FBS, 0.000781 µM
[13] = RPMI 5 mM glucose + 10% FBS, 0.00234 µM
[14] = RPMI 5 mM glucose + 10% FBS, 0.00702 µM
[15] = RPMI 5 mM glucose + 10% FBS, 0.0211 µM
[16] = RPMI 5 mM glucose + 10% FBS, 0.0632 µM
[17] = RPMI 5 mM glucose + 10% FBS, 0.19 µM
[18] = RPMI 5 mM glucose + 10% FBS, 0.569 µM
[19] = RPMI 5 mM glucose + 10% FBS, 1.71 µM
[20] = RPMI 5 mM glucose + 10% FBS, 5.12 µM
[21] = RPMI 5 mM glucose + 10% FBS, 15.4 µM
[22] = RPMI 5 mM glucose + 10% FBS, 46.1 µM
[23] = RPMI 5 mM glucose + 10% dialyzed FBS, 0.000781 µM
[24] = RPMI 5 mM glucose + 10% dialyzed FBS, 0.00234 µM
[25] = RPMI 5 mM glucose + 10% dialyzed FBS, 0.00702 µM
[26] = RPMI 5 mM glucose + 10% dialyzed FBS, 0.0211 µM
[27] = RPMI 5 mM glucose + 10% dialyzed FBS, 0.0632 µM
[28] = RPMI 5 mM glucose + 10% dialyzed FBS, 0.19 µM
[29] = RPMI 5 mM glucose + 10% dialyzed FBS, 0.569 µM
[30] = RPMI 5 mM glucose + 10% dialyzed FBS, 1.71 µM
[31] = RPMI 5 mM glucose + 10% dialyzed FBS, 5.12 µM
[32] = RPMI 5 mM glucose + 10% dialyzed FBS, 15.4 µM
[33] = RPMI 5 mM glucose + 10% dialyzed FBS, 46.1 µM

Row | Structure (SMILES) | cell viability [1] [%] | cell viability [2] [%] | cell viability [3] [%] | cell viability [4] [%] | cell viability [5] [%] | cell viability [6] [%] | cell viability [7] [%] | cell viability [8] [%] | cell viability [9] [%] | cell viability [10] [%] | cell viability [11] [%] | cell viability [12] [%] | cell viability [13] [%] | cell viability [14] [%] | cell viability [15] [%] | cell viability [16] [%] | cell viability [17] [%] | cell viability [18] [%] | cell viability [19] [%] | cell viability [20] [%] | cell viability [21] [%] | cell viability [22] [%] | cell viability [23] [%] | cell viability [24] [%] | cell viability [25] [%] | cell viability [26] [%] | cell viability [27] [%] | cell viability [28] [%] | cell viability [29] [%] | cell viability [30] [%] | cell viability [31] [%] | cell viability [32] [%] | cell viability [33] [%]
1 | CNC1CCC(N(Cc2cccc(-c3ccncc3)c2)C(=O)c2sc3ccccc3c2Cl)CC1 (centres undefined) | 86.2 | 93.2 | 104 | 90.6 | 87.9 | 105 | 95.5 | 25.6 | 4.92 | 3.48 | 2.45 | 90.1 | 83.7 | 100 | 114 | 88.5 | 97.4 | 18.2 | 6.65 | 5.64 | 3.32 | 1.88 | 76.6 | 82.9 | 95.5 | 98.5 | 77.7 | 99.1 | 81.6 | 6.38 | 5.65 | 3.68 | 2.48
2 | Cc1cc(OCCCc2c(C(=O)O)n(Cc3cccnc3)c3c(-c4c(COc5ccc(N6CCN([S+](C)(=O)[O-])CC6)cc5)nn(C)c4C)cccc23)cc(C)c1Cl | 102 | 94.1 | 105 | 101 | 89.4 | 91.8 | 100 | 93.3 | 84.9 | 81.5 | 62.2 | 112 | 116 | 133 | 106 | 105 | 113 | 112 | 96.9 | 111 | 91.2 | 67.4 | 86.7 | 94.5 | 96.1 | 104 | 102 | 110 | 90.7 | 91.7 | 89.8 | 76.4 | 53.1
3 | COc1cnc(N[S+](=O)([O-])c2ccc(N)cc2)nc1 | 75.9 | 96.2 | 85.7 | 86.1 | 93.2 | 94.6 | 91.9 | 93.1 | 109 | 102 | 103 | 94.9 | 97.4 | 99.7 | 104 | 101 | 107 | 113 | 97.3 | 107 | 102 | 105 | 75.9 | 91.6 | 106 | 104 | 93.7 | 107 | 108 | 115 | 117 | 106 | 118
4 | OC(=O)C1=CC=C(NC2=NC3=C(C\N=C(/C4=CC(=CC=C34)Cl)C5=C(F)C=CC=C5F)C=N2)C=C1 | 88.5 | 98.5 | 87.5 | 97.9 | 101 | 96 | 114 | 65.8 | 59.7 | 36.9 | 40.3 | 96 | 93 | 113 | 99.9 | 109 | 91 | 109 | 60.2 | 37.3 | 28.4 | 23.2 | 88.6 | 98.5 | 86 | 105 | 90.8 | 95.7 | 107 | 58.6 | 39 | 28.4 | 32.2
5 | COc1cccc2cc(-c3nc(C4CCC(C(=O)O)CC4)n4ncnc(N)c34)[nH]c12 (centres undefined) | 118 | 132 | 124 | 107 | 107 | 101 | 74.7 | 36.2 | 28.2 | 22.6 | 16.4 |  |  |  |  |  |  |  |  |  |  |  | 111 | 133 | 118 | 114 | 96 | 99.7 | 89.3 | 52.6 | 31.5 | 22.2 | 15.8
